According to US8865756B2, “Inhibitors of HCV NS5A” (Presidio Pharmaceuticals, Inc., priority 2008, dated 2014):

The molecules below were run on HCV 1b_Huh-Luc/Neo-ET cell line persistently expressing a bicistronic genotype 1b replicon in Huh 7 cells (assay: HCV replicon assay (luciferase readout)). Conditions: Hepatitis C virus, Huh-7, 72 h, read-out: Inhibition of HCV genotype 1b.
Type: cell-based
Summary of the method: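 EC50, determined repeatedly, comes from a four-parameter logistic fit of luciferase signal as percent of untreated control. Readout follows 72 h compound exposure, in triplicate, of the HCV 1b_Huh-Luc/Neo-ET replicon line.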

Q: `COC(=O)N[C@@H]1CCC[C@H]1C(=O)N1CCC[C@H]1c1ncc(-c2ccc(C#Cc3ccc4nc([C@@H]5CCCN5C(=O)[C@@H]5CCC[C@H]5NC(=O)OC)[nH]c4c3)cc2)[nH]1` [Compound 1058] was tested. Which EC50 did it give?
A: 10 to 999 nM

Q: `COC(=O)N[C@H]1CCC[C@@H]1C(=O)N1CCC[C@H]1c1ncc(-c2ccc(C#Cc3ccc4nc([C@@H]5CCCN5C(=O)[C@H]5CCC[C@@H]5NC(=O)OC)[nH]c4c3)cc2)[nH]1` [Compound 1059] was tested. Which EC50 did it give?
A: 10 to 999 nM

Q: With `COC(=O)N[C@H](C(=O)N1CCC[C@H]1c1ncc(-c2cc(C)c(C#Cc3ccc4nc([C@@H]5CCCN5C(=O)[C@@H](NC(=O)OC)C(C)C)[nH]c4c3)c(C)c2)[nH]1)C(C)C` [Compound 1060] as the molecule, how does the EC50 read?
A: < 1 nM

Q: `COC(=O)N[C@@H](CC(=O)O)C(=O)N1CCC[C@H]1c1ncc(-c2ccc(C#Cc3ccc4nc([C@@H]5CCCN5C(=O)[C@H](CC(=O)O)NC(=O)OC)[nH]c4c3)cc2)[nH]1` [Compound 1061] was tested. Which EC50 did it give?
A: 10 to 999 nM

Q: Which EC50 does the source give for `COC(=O)N[C@H](C(=O)N1CCSC[C@H]1c1ncc(-c2ccc(C#Cc3ccc4nc([C@@H]5CCCN5C(=O)[C@@H](NC(=O)OC)C(C)C)[nH]c4c3)cc2)[nH]1)C(C)C` [Compound 1062] here?
A: < 1 nM

Q: `COC(=O)N1CCC[C@H]1C(=O)N1CCC[C@H]1c1ncc(-c2ccc(C#Cc3ccc4nc([C@@H]5CCCN5C(=O)[C@@H]5CCCN5C(=O)OC)[nH]c4c3)cc2)[nH]1` [Compound 1063] was tested. Which EC50 did it give?
A: 10 to 999 nM

Q: How did the EC50 turn out when `COC(=O)N[C@@H](CC(=O)N1CCC[C@H]1c1ncc(-c2ccc(C#Cc3ccc4nc([C@@H]5CCCN5C(=O)C[C@H](NC(=O)OC)C(C)C)[nH]c4c3)cc2)[nH]1)C(C)C` [Compound 1064] was run?
A: 10 to 999 nM

Q: `COC(=O)N[C@H](CC(=O)N1CCC[C@H]1c1ncc(-c2ccc(C#Cc3ccc4nc([C@@H]5CCCN5C(=O)C[C@@H](NC(=O)OC)C(C)C)[nH]c4c3)cc2)[nH]1)C(C)C` [Compound 1065] was tested. Which EC50 did it give?
A: 10 to 999 nM

Q: How did the EC50 turn out when `COCCOc1c(C#Cc2ccc3nc([C@@H]4CCCN4C(=O)[C@@H](NC(=O)OC)C(C)C)[nH]c3c2)ccc(-c2cnc([C@@H]3CCCN3C(=O)[C@H](NC(=O)OC)C(C)C)[nH]2)c1OCCOC` [Compound 1066] was run?
A: < 1 nM

Q: With `COC(=O)N[C@@H](CC(C)C)C(=O)N1CCC[C@H]1c1ncc(-c2ccc(C#Cc3ccc4nc([C@@H]5CCCN5C(=O)[C@H](CC(C)C)NC(=O)OC)[nH]c4c3)cc2)[nH]1` [Compound 1067] as the molecule, how does the EC50 read?
A: < 1 nM

Q: How did the EC50 turn out when `COC(=O)N[C@H](C(=O)N1CC[C@H](O)[C@H]1c1ncc(-c2ccc(C#Cc3ccc4nc([C@@H]5CCCN5C(=O)[C@@H](NC(=O)OC)C(C)C)[nH]c4c3)cc2)[nH]1)C(C)C` [Compound 1068] was run?
A: < 1 nM

Q: `COC(=O)N[C@H](C(=O)N1CCC[C@H]1c1ncc(-c2ccc(C#Cc3ccc4nc([C@@H]5CCCN5C(=O)[C@@H](NC(=O)OC)C5CCOCC5)[nH]c4c3)cc2F)[nH]1)C1CCOCC1` [Compound 1070] was tested. Which EC50 did it give?
A: < 1 nM

Q: How did the EC50 turn out when `COC(=O)N[C@H](C(=O)N1CCC[C@H]1c1nc(-c2cnc3cc(C#Cc4cnc([C@@H]5CCCN5C(=O)[C@@H](NC(=O)OC)C(C)C)[nH]4)ccc3c2)c[nH]1)C(C)C` [Compound 1076] was run?
A: < 1 nM

Q: For `COC(=O)N[C@H](C(=O)N1CCC[C@H]1c1nc(-c2ccc3cc(C#Cc4cnc([C@@H]5CCCN5C(=O)[C@H](NC(=O)OC)c5ccccc5)[nH]4)ccc3c2)c[nH]1)C(C)C` [Compound 1077], which EC50 is on record?
A: < 1 nM

Q: How did the EC50 turn out when `COC(=O)N[C@H](C(=O)N1CCC[C@H]1c1nc(-c2ccc3cc(C#Cc4cnc([C@@H]5CCCN5C(=O)[C@@H](NC(=O)OC)C(C)C)[nH]4)ccc3c2)c[nH]1)c1ccccc1` [Compound 1078] was run?
A: < 1 nM

Q: `COC(=O)N[C@H](C(=O)N1CCC[C@H]1c1nc(-c2ccc3cc(C#Cc4cnc([C@@H]5CCCN5C(=O)[C@@H](NC(=O)OC)C5CCOCC5)[nH]4)ccc3c2)c[nH]1)C(C)C` [Compound 1079] was tested. Which EC50 did it give?
A: < 1 nM

Q: With `COC(=O)N[C@H](C(=O)N1CCC[C@H]1c1nc2ccc(C#Cc3ccc(-c4ccc5nc([C@@H]6CCCN6C(=O)[C@@H](NC(=O)OC)C(C)C)[nH]c5c4)nc3)cc2[nH]1)C(C)C` [Compound 1083] as the molecule, how does the EC50 read?
A: < 1 nM

Q: `COC(=O)N[C@H](C(=O)N1CCC[C@H]1c1ncc(C#Cc2ccc(-c3ccc4nc([C@@H]5CCCN5C(=O)[C@@H](NC(=O)OC)C(C)C)[nH]c4c3)cc2)[nH]1)C(C)C` [Compound 1084] was tested. Which EC50 did it give?
A: < 1 nM

Q: `COC(=O)N[C@H](C(=O)N1CCC[C@H]1c1nc2ccc(-c3ccc(C#Cc4cnc([C@@H]5CCCN5C(=O)[C@H](NC(=O)OC)c5ccccc5)[nH]4)cc3)cc2[nH]1)C(C)C` [Compound 1085] was tested. Which EC50 did it give?
A: < 1 nM

Q: How did the EC50 turn out when `COC(=O)N[C@H](C(=O)N1CCC[C@H]1c1ncc(C#Cc2ccc(-c3ccc4nc([C@@H]5CCCN5C(=O)[C@@H](NC(=O)OC)C(C)C)[nH]c4c3)nc2)[nH]1)C(C)C` [Compound 1086] was run?
A: < 1 nM

Q: With `COC(=O)N[C@H](C(=O)N1CCC[C@H]1c1ncc(C#Cc2ccc(-c3ccc4nc([C@@H]5CCCN5C(=O)[C@H](NC(=O)OC)c5ccccc5)[nH]c4c3)nc2)[nH]1)C(C)C` [Compound 1087] as the molecule, how does the EC50 read?
A: < 1 nM

Q: With `COC(=O)N[C@H](C(=O)N1CCC[C@H]1c1nc(-c2cnc3cc(C#Cc4ccc(-c5cnc([C@@H]6CCCN6C(=O)[C@@H](NC(=O)OC)C(C)C)[nH]5)cc4)ccc3c2)c[nH]1)C(C)C` [Compound 1088] as the molecule, how does the EC50 read?
A: 1 to 9.9 nM

Q: `COC(=O)N[C@H](C(=O)N1CCC[C@H]1c1nc(-c2cnc3cc(C#Cc4ccc(-c5cnc([C@@H]6CCCN6C(=O)[C@@H](NC(=O)OC)c6ccccc6)[nH]5)cc4)ccc3c2)c[nH]1)c1ccccc1` [Compound 1089] was tested. Which EC50 did it give?
A: 1 to 9.9 nM

Q: With `COC(=O)N[C@H](C(=O)N1CCC[C@H]1c1nc2c([nH]1)-c1ccc(C#Cc3ccc(-c4cnc([C@@H]5CCCN5C(=O)[C@@H](NC(=O)OC)C5CCOCC5)[nH]4)cc3)cc1CC2)C(C)C` [Compound 1091] as the molecule, how does the EC50 read?
A: < 1 nM

Q: How did the EC50 turn out when `COC(=O)N[C@H](C(=O)N1CCC[C@H]1c1nc2ccc3cc(C#Cc4ccc(-c5cnc([C@@H]6CCCN6C(=O)[C@@H](NC(=O)OC)C6CCOCC6)[nH]5)cc4)ccc3c2[nH]1)C(C)C` [Compound 1092] was run?
A: < 1 nM

Q: With `COC(=O)N[C@H](C(=O)N1CCC[C@H]1c1nc2ccc3cc(C#Cc4ccc(-c5cnc([C@@H]6CCCN6C(=O)[C@H](NC(=O)OC)c6ccccc6)[nH]5)cc4)ccc3c2[nH]1)C(C)C` [Compound 1093] as the molecule, how does the EC50 read?
A: < 1 nM

Q: For `COC(=O)N[C@H](C(=O)N1CCC[C@H]1c1ncc(-c2ccc(C#Cc3ccc4c(c3)CCc3nc([C@@H]5CCCN5C(=O)[C@@H](NC(=O)OC)C(C)C)[nH]c3-4)cc2)[nH]1)C(C)C` [Compound 1094], which EC50 is on record?
A: < 1 nM

Q: `COC(=O)N[C@H](C(=O)N1CCC[C@H]1c1ncc(-c2ccc(C#Cc3ccc4c(ccc5nc([C@@H]6CCCN6C(=O)[C@@H](NC(=O)OC)C(C)C)[nH]c54)c3)cc2)[nH]1)C(C)C` [Compound 1095] was tested. Which EC50 did it give?
A: < 1 nM

Q: How did the EC50 turn out when `COC(=O)N[C@H](C(=O)N1CCC[C@H]1c1ncc(-c2ccc(C#Cc3ccc4c(c3)CCCc3nc([C@@H]5CCCN5C(=O)[C@@H](NC(=O)OC)C(C)C)[nH]c3-4)cc2)[nH]1)C(C)C` [Compound 1096] was run?
A: < 1 nM

Q: With `COC(=O)N[C@H](C(=O)N1CCC[C@H]1c1nc2c([nH]1)-c1ccc(C#Cc3ccc(-c4cnc([C@@H]5CCCN5C(=O)[C@@H](NC(=O)OC)C5CCOCC5)[nH]4)cc3)cc1CCC2)C(C)C` [Compound 1097] as the molecule, how does the EC50 read?
A: < 1 nM

Q: Which EC50 does the source give for `COC(=O)N[C@H](C(=O)N1CCC[C@H]1c1nc2c([nH]1)-c1ccc(C#Cc3ccc(-c4cnc([C@@H]5CCCN5C(=O)[C@H](NC(=O)OC)c5ccccc5)[nH]4)cc3F)cc1CC2)C(C)C` [Compound 1098] here?
A: < 1 nM

Q: How did the EC50 turn out when `COC(=O)N[C@H](C(=O)N1CCC[C@H]1c1nc2ccc3cc(C#Cc4ccc(-c5cnc([C@@H]6CCCN6C(=O)[C@@H](NC(=O)OC)C6CCOCC6)[nH]5)cc4F)ccc3c2[nH]1)C(C)C` [Compound 1099] was run?
A: < 1 nM

Q: `COC(=O)N[C@H](C(=O)N1CCC[C@H]1c1nc2ccc3cc(C#Cc4ccc(-c5cnc([C@@H]6CCCN6C(=O)[C@H](NC(=O)OC)c6ccccc6)[nH]5)cc4F)ccc3c2[nH]1)C(C)C` [Compound 1100] was tested. Which EC50 did it give?
A: < 1 nM
